Measurements as given in patent publication US5175283A, “Azetidin-2-one derivatives as serine protease inhibitors” (Bristol-Myers Squibb Company, priority 1992, dated 1992).
Where “and” joins values, the source holds several entries; their conditions need not be identical. Equal entries are not always repeated. Structures can show the parent of a compound that is named as a salt.

Columns and labels:
human α-thrombin [1] = biological target: T1, human α-thrombin (Homo sapiens, UniProt P00734); test: Enzyme assay for the inhibition of thrombin (s-2238 substrate); type: biochemical
T1 construct: purified human α-thrombin dissolved in thrombin assay buffer
Experimental: 1. Enzyme Assays for the Inhibition of Thrombin The following reagents were used in these assays: Thrombin assay buffer: 145 mM NaCl, 5 mM KCl, 30 mM N-2-hydroxyethyl piperazine-N'-2-ethanesulfonic acid, pH 7.4, 1 mg/ml polyethylene glycol (PEG-8000). 3 mM D-Phe-Pip-Arg-p-nitroanilide (s-2238) in H2 O. 3 U/ml purified human α-thrombin dissolved in thrombin assay buffer. Inhibitors to be tested were dissolved in H2 O, methanol, or DMSO just prior to use. Assay Procedure To each well in a 96-well microtiter plate, 270 μl of assay buffer was added. Human α-thrombin (10 μl of 3 U/ml) was added, then 10 μl of inhibitor were added and mixed. The samples were incubated at room temperature for a defined period of time (3 min for initial IC50 determinations). The enzymic reaction was started with 10 μl of 3 mM s-2238 substrate and continued at room temperature. The change in optical density was measured at 405 nm. A kinetic microplate reader (Molecular Devices Corporation Vmax) was used to measure the change in optical density over time. Results are reported in Table 1 as IC50 values, i.e., the drug concentration in mole/liter which caused 50% inhibition of the enzyme activity (after incubation of the drug with the enzyme for 3 min). Alternatively, results are also reported in Table 1 expressed as k2 /ki which is the second order rate constant in per mole per minute for inactivation time of the enzyme [Kitz, et al., J. Biol. Chem., 237, 3245 (1962)].

[2] = biological target: T2, bovine pancreatic trypsin (Bos taurus, UniProt P00760); test: Enzyme assay for the inhibition of trypsin (Z-Val-Gly-Arg-pNA substrate); type: biochemical; settings: 3 min incubation of drug with enzyme, room temperature, pH 8.0; read-out: Trypsin IC50
T2 construct: purified bovine pancreatic trypsin dissolved in trypsin assay buffer
T2 sequence (P00760 24-246): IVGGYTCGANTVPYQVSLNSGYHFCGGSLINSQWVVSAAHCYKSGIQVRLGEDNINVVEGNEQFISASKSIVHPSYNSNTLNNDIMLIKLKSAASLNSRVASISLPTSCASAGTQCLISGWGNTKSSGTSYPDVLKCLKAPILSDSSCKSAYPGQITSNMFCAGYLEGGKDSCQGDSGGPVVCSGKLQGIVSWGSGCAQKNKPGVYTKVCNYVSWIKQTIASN
Experimental: 2. Enzyme Assays for the Inhibition of Trypsin
(§1) The following reagents were used in these assays:
Trypsin assay buffer: 2 mM CaCl2, 50 mM Tris/Cl pH 8.0.
3 mM Z-Val-Gly-Arg-pNA (Chromzyme TRy) dissolved in H2 O.
6 μg/ml of purified bovine pancreatic trypsin dissolved in trypsin assay buffer.
Inhibitors to be tested were dissolved in H2 O, methanol or DMSO just prior to use.
To each well in a 96-well microtiter plate, 270 μl of assay buffer was added. Bovine trypsin (10 μl of 6 μg/ml) was added. Inhibitor (10 μl ) was added, mixed, and then incubated at room temperature for 3 min. The enzymic reaction was started with 10 μl of 3 mM Z-Val-Gly-Arg-pNA substrate. The change in optical density was measured at 405 nm at room temperature. A kinetic microplate reader (Molecular Devices Corporation Vmax) was used to measure the change in optical density over time.
Results are reported in Table 1 as IC50 values, i.e., the drug concentration in mole/liter which caused 50% inhibition of the enzyme activity (after incubation of the drug with the enzyme for 3 min).

human α-thrombin [3] = biological target: T1, human α-thrombin; test: Concentration required for doubling thrombin clotting time in human plasma; type: biochemical; settings: human citrated plasma, 10 U/ml human thrombin; read-out: ED50, drug concentration required to double clotting time
Experimental: Procedure for Determining the Concentration Required for Doubling Thrombin Clotting Time--Clotting Time Assays The following reagents were used in these assays: Owren's Veronal Buffer: 125 mM NaCl, 28.4 mM sodium barbital, pH 7.35. Human citrated plasma obtained from human volunteers or citrated plasma obtained from IP-dosed animals (prepared as described below). 10 NIH Units/ml human α-thrombin in thrombin buffer for use with human plasma. […] The blood was centrifuged at […] (480×g) for 15 min at room temperature (using a Sorvall RT 6000B centrifuge). The plasma was removed, pooled, and aliquoted into small tubes which were stored frozen for later use. Clotting Time Measurement Clotting times were determined by pipetting 0.1 ml of Owren's buffer (pre-warmed 37° C.) and 0.1 ml of human or rat plasma into yellow sample cuvettes. For studies with human plasma 10 U/ml human thrombin (10 ml) was placed in the reservoir assembly station of the MLA 700. (Medical Laboratory Automation, Electra 700 Reservoir Assembly). For rat studies, the human thrombin concentration was 25 U/ml. The cuvettes were vortexed and then placed on the MLA 700 sample wheel. The coagulation timer (MLA 700) automatically dispenses 0.1 ml human thrombin into the sample in each cuvette. Detection of the fibrin clot was determined optically by the MLA 700. Studies were performed to determine the concentration of drug which caused a doubling of the clotting time in human plasma. From standard curves of thrombin activity added to the sample versus the clotting time, the concentration of drug which caused a doubling of the thrombin clotting time corresponded to inhibition of approximately 1/2 of the added thrombin clotting activity. Results are reported in Table 1 as ED50 values, i.e., the drug concentration required to double clotting time.

[4] = system: Thrombin Induced Clotting Time; test: Thrombin induced clotting time ex vivo in plasma of i.p. dosed rats; settings: rat, 50 mg/kg i.p.; for Thrombin Induced Clotting Time (1:4 Control Plasma): plasma diluted 1:4 with control plasma; for Thrombin Induced Clotting Time, terminated samples / Thrombin Induced Clotting Time: undiluted plasma, per animal
Experimental: Procedure for Determining the Concentration Required for Doubling Thrombin Clotting Time--Clotting Time Assays
as §1
Owren's Veronal Buffer: 125 mM NaCl, 28.4 mM sodium barbital, pH 7.35.
Human citrated plasma obtained from human volunteers or citrated plasma obtained from IP-dosed animals (prepared as described below).
25 NIH Units/ml human α-thrombin in thrombin buffer for use with rat plasma.
Test compound was prepared just prior to dosing. Routinely the drugs are dissolved in water. Animals were dosed by i.p. injection.
After the appropriate time period, the animals were ether-anesthetized, and blood was drawn by cardiac puncture using 333 μl of 3.8% sodium citrate per 3 ml blood. After all of the samples were obtained, the tubes were centrifuged at 1,500 rpm for 15 min as described for the human blood samples.
Clotting Time Measurement
Clotting times were determined by pipetting 0.1 ml of Owren's buffer (pre-warmed 37° C.) and 0.1 ml of human or rat plasma into yellow sample cuvettes. For studies with human plasma 10 U/ml human thrombin (10 ml) was placed in the reservoir assembly station of the MLA 700. (Medical Laboratory Automation, Electra 700 Reservoir Assembly). For rat studies, the human thrombin concentration was 25 U/ml. The cuvettes were vortexed and then placed on the MLA 700 sample wheel. The coagulation timer (MLA 700) automatically dispenses 0.1 ml human thrombin into the sample in each cuvette. Detection of the fibrin clot was determined optically by the MLA 700.
In separate studies, two compounds, Compound XIX and Compound XI, were dosed 50 mg/kg I.P. to three rats in each study group. […] "Term" indicates "terminated sample" where a clot was unable to form after approximately 99 seconds. When this occurred, the animal plasma was diluted 1: 1 with control rat plasma and the sample tested again. If need, the animal plasma was diluted 1:4 and tested again.

SMILES: CC(=O)N1C(=O)[C@@H](CCCNC(=N)N)[C@@H]1C(=O)N1CCCCC1 (relative stereo) [Compound XI, trans-4-(1-Piperidinocarbonyl)-3-guanidinooropyl-1-acetyl-2azetidinone hydrochloride salt]
- IC50 (human α-thrombin [1]; 3 min incubation of drug with enzyme, room temperature): 90 nM
- Thrombin k2 /ki (second order rate constant for inactivation of the enzyme) (human α-thrombin [1]; human α-thrombin, s-2238, pH 7.4, room temperature): 4.2 × 10^5 m^-1 min^-1
- IC50 [2]: 9 nM
- IC (2-fold clotting time) (human α-thrombin [3]): 0.5 µM
- Thrombin Induced Clotting Time (1:1 Control Plasma), terminated samples ([4]; 0.5 hr. post dose, plasma diluted 1:1 with control rat plasma): term. ("terminated sample" where a clot was unable to form after approximately 99 seconds)
- Thrombin Induced Clotting Time (1:4 Control Plasma) ([4]; 0.5 hr. post dose, hydrochloride salt, 50 mg/kg, in s): 18.0 and 17.7 and 32.4
- Thrombin Induced Clotting Time, terminated samples ([4]; 0.5 hr. post dose): term. ("terminated sample" where a clot was unable to form after approximately 99 seconds)
- Thrombin Induced Clotting Time (1:1 Control Plasma) ([4]; 2 hr. post dose, plasma diluted 1:1 with control rat plasma, in s): 45.7
- Thrombin Induced Clotting Time (1:4 Control Plasma) ([4]; 2 hr. post dose, in s): 14.0
- Thrombin Induced Clotting Time, terminated samples ([4]; 2 hr. post dose): term. ("terminated sample" where a clot was unable to form after approximately 99 seconds)
- Thrombin Induced Clotting Time ([4]; 2 hr. post dose, hydrochloride salt, 50 mg/kg): 17.2 s and 14.7 s
- Thrombin Induced Clotting Time ([4]; 5 hr. post dose, hydrochloride salt, 50 mg/kg): 13.1 s and 11.4 s and 11.5 s
- Clotting time ex vivo, result in words ([4]; three rats per group): prolonged clotting time
